Measurements taken from patent US20210052544A1, “METHODS OF TREATING AND/OR […] USING NABILONE” (Solantech Inc., priority 2018, published 2021).

System: bedsores
Assay: Clinical observation of bedsores in dementia patients with agitation treated orally with nabilone
Type: in vivo
Protocol: Patients with dementia having agitation were treated orally at a dose of 0.5 mg nabilone twice a day initially and then going up to a total of 2 mg per day to reduce agitation. […] The number of patients where this effect was observed was six. The perceived impact on healing was significant with healing times varying between 3-6 weeks for small sores.

CCCCCCC(C)(C)c1cc(O)c2c(c1)OC(C)(C)C1CCC(=O)CC21 (stereo not shown) [nabilone]
large sores in treated patients (oral 0.5 mg twice a day up to 2 mg per day): No large sores were observed | healing of existing bedsores (patients who did have bedsores, oral 0.5 mg twice a day up to 2 mg per day): the bedsores appeared to heal faster | number and/or severity of bedsores (patients with dementia having agitation, oral 0.5 mg twice a day initially, up to total 2 mg per day, effect observed in six patients): perceived reduction in the number and/or severity of bedsores | healing times for small sores (small sores, oral 0.5 mg twice a day up to 2 mg per day): 3-6 weeks
